Source: article PMC11434613, “The Remarkable and Selective In Vitro Cytotoxicity of Synthesized Bola-Amphiphilic Nanovesicles on Etoposide-Sensitive and -Resistant Neuroblastoma Cells” (Nanomaterials, 2024)
“And” between values parts separate entries of the source, which are not always exact repeats. Equal values may be shown once.

Assays:
HTLA-ER cells = assay: Cell viability assay (CellTiter 96 AQueous One Solution) on etoposide-resistant HTLA-ER NB cells; format: cell-based, human
Source text: HTLA-230 human stage-IV NB cells were kindly provided by Dr. L. Raffaghello (G. Gaslini Institute, Genoa, Italy). The HTLA-ER cells were selected by treating HTLA-230 parental cells for six months with increasing concentrations of etoposide, as previously reported. Both cell populations were maintained in RPMI 1640 medium (Euroclone Spa, Pavia, Italy) supplemented with 10% fetal bovine serum (FBS, Euroclone Spa, Pavia, Italy), 1% L-glutamine (Euroclone Spa, Pavia, Italy), and 1% Penicillin/Streptomicin (Euroclone Spa, Pavia, Italy) and grown in standard conditions (37 °C humidified incubator with 5% CO2).
To determine the cytotoxic effects of BPPB, in vitro time- and dose-dependent experiments were carried out. Cells were first treated for 24, 48, and 72 h, with increasing concentrations (0.5–50 µM) of the compound. In a subsequent series of the experiments, cells were treated for 24, 48, and 72 h with increasing concentration of BPPB in the range of 0.1–2 µM. […] Cell cultures were carefully monitored before and during the experiments to ensure optimal cell density.
Cell viability was determined by using the CellTiter 96® AQueous One Solution Cell Proliferation Assay (Promega, Madison, WI, USA), as previously described. Briefly, cells (10,000 cells/well) were seeded into 96-well plates (Corning Incorporated, Corning, NY, USA) and then treated. Next, cells were incubated with 20 µL of CellTiter, and the absorbance at 490 nm was recorded using a microplate reader (EL-808, BIO-TEK Instruments Inc., Winooski, VT, USA). IC50 was evaluated by GraphPad Prism 5.4.2 Software (GraphPad Software, Boston, MA, USA).
Results are expressed as the means ± S.D. of at least four independent experiments in which six different wells were analyzed every time for each experimental condition. The statistical significance of differences was determined by two-way analysis of variances (ANOVA) followed by Tukey’s multicomparison test using GraphPad Prism 8.0 (GraphPad Software v8.0, San Diego, CA, USA); p < 0.05 was considered statistically significant. Asterisks or other indicators (see Figures captions) indicate the following p-value ranges: p > 0.05 no symbols, * = p < 0.05, ** = p < 0.01, *** = p < 0.001, **** = p < 0.0001.

HepG2 cells [1] = assay: MTT cytotoxicity assay on HepG2 cells; format: cell-based, human; conditions: for IC50: MTT, concentration range 0.4–85.3 µM
Protocol: (§1) To assess the cytotoxicity properties of BPPB, the MTT (3-(4,5-dimethylthiazol-2-yl)-2,5-diphenyltetrazolium bromide) cell proliferation assay (Abcam, Prodotti Gianni s.r.l., Milano, Italy, Cat#ab2011091) was performed, following the manufacturer’s protocol, as previously reported. This time, the increasing concentrations of BPPB were in the range of 0.4–85.3 µM. The cell survival rate, expressed as cell viability percentage (%), was evaluated based on the experimental outputs of treated groups vs. the untreated groups (CTR) and was calculated as follows: cell viability (%) = (OD treated cells − OD blank)/(OD untreated cells − OD blank) × 100%.
(§2) In this study, the cytotoxicity profile of BPPB was assessed in both immortalized human liver cells (HepG2) cells, as in our previous works, and in transformed African green monkey kidney fibroblast cells (Cos-7), as reported in a recent paper. Specifically, we evaluated the cytotoxicity of BPPB by carrying out both the MTT proliferation assay and the lactate dehydrogenase (LHD) cytotoxicity assay, which measures the LDH activity as an indicator of cell death. Both cell lines were exposed for 24 h to increasing concentrations of BPPB (0.4–85.3 µM). Growth inhibition/death were determined by the MTT test, while cell cytotoxicity was determined by LDH assay, with respect to untreated control cells. Results are reported as bar graphs in Figure 8 and as dispersion graphs in Figures S13 and S14 in Supplementary Materials (Section S2).

[2] = MTT cytotoxicity assay on HepG2 cells; format: cell-based, human; conditions: human
Protocol: as §1, §2

HepG2 cells [3] = test system: HepG2 cells; set-up: method as in earlier work; conditions: MTT test; Table S1, previously assessed characteristics; cited from earlier work
Cos-7 cells = test system: Cos-7 cells; set-up: method as in earlier work; conditions: MTT test; Table S1, previously assessed characteristics; cited from earlier work
HepG2 cells [4] = assay: LDH cytotoxicity assay on HepG2 cells; format: cell-based; conditions: LDH test; 24 h
Protocol: To assess the cytotoxicity properties of BPPB, the lactate dehydrogenase (LDH) cytotoxicity assay (Abcam, Cat#ab102526) was performed, following manufacturer’s protocol, as previously described. This time, the increasing concentrations of BPPB were in the range 0.4–85.3 µM.
as §2

In the case of `c1ccc([P+](CCCCCCCCCCCC[P+](c2ccccc2)(c2ccccc2)c2ccccc2)(c2ccccc2)c2ccccc2)cc1` [BPPB, 1,1-(1,12-dodecanediyl)bis [1,1, 1]-triphenylphosphonium di-bromide], the “Cell viability HTLA-ER” value (HTLA-ER cells; 0.5 µM, 24 h, series 0.5–50 µM) is reported as “not significantly different from that of controls”, the “Fold lower IC50 on HTLA-ER than that of ETO” value (HTLA-ER cells; 24 h, ETO IC50 592 µM from ref 58) is reported as 538 fold and the “Cell viability HTLA-ER” value (HTLA-ER cells; 24 h, concentration at which hemolysis was inexistent (concentration not stated)) is reported as 14.3%. For the same molecule, the IC50 (HTLA-ER cells; 24 h exposure, refined concentration range 0.1–2 µM) was 1110 nM, the IC50 (HTLA-ER cells; 48 h exposure, refined concentration range 0.1–2 µM) was 930 ± 95.6 nM and the IC50 (HTLA-ER cells; 72 h exposure, refined concentration range 0.1–2 µM) was 833 ± 68.5 nM. The IC50 (HTLA-ER cells; Homo sapiens, 24 h, 24 h exposure, concentration range 0.5–50 µM) was 1850 ± 392 nM, the IC50 (HTLA-ER cells; Homo sapiens, 24 h, 24 h exposure, refined concentration range 0.1–2 µM) was 1100 nM and the IC50 (HTLA-ER cells; Homo sapiens, 48 h, 48 h exposure, concentration range 0.5–50 µM) was 732 ± 159 nM. For the same molecule, the IC50 (HTLA-ER cells; Homo sapiens, 48 h, 48 h exposure, refined concentration range 0.1–2 µM) was 900 nM, the IC50 (HTLA-ER cells; Homo sapiens, 72 h, 72 h exposure, concentration range 0.5–50 µM) was 892 ± 167 nM and the IC50 (HTLA-ER cells; Homo sapiens, 72 h, 72 h exposure, refined concentration range 0.1–2 µM) was 800 nM. It also gave an IC50 (HTLA-ER cells; Homo sapiens, 72 h, over 24, 48, 72 h, range 0.1–2 µM) of 800 to 1100 nM, a viability at 0.5 µM (HTLA-ER cells; Homo sapiens, 0.5 µM, 48 h, series 0.5–50 µM) of 54.1% and a viability at 0.5 µM (HTLA-ER cells; Homo sapiens, 0.5 µM, 72 h, series 0.5–50 µM) of 62%. For the same molecule, the “Cell viability HTLA-ER (plateau)” value (HTLA-ER cells; concentrations above 5–10 µM up to 50 µM, all exposure times) was 7–8%, the “Selectivity index (SI) = IC50 HepG2 / IC50 HTLA-230” value (HepG2 cells [1]; 24 h) was 40.6 and 40.63 and the “Selectivity index (SI) = IC50 HepG2 / IC50 HTLA-ER” value (HepG2 cells [1]; 24 h) was 8.68. The IC50 (HepG2 cells [1]; 24 h) was 9640 ± 1310 nM, the IC50 (HepG2 cells [1]; Homo sapiens, HepG2, 24 h) was 9600 nM and the “Concentrations with a safety profile toward HepG2” value (HepG2 cells [1]; MTT test, 24 h) was no more than 8.5 µM. The viability at 24 h ([2]; HepG2 cells, 8.5 µM and 4.3 µM, which value belongs to which concentration is not stated, read-out: Cell viability HepG2 (MTT)) was 64.5%, the selectivity ratio at 24 h ([2]; read-out: Selectivity index (SI) = IC50 HepG2 / IC50 HTLA-ER) was 8.7 and the “IC50 HepG2 cell” value (HepG2 cells [3]) was 11.31 ± 1.54 µg/mL. For the same molecule, the “IC50 COS-7 cell” value (Cos-7 cells) was 5.76 ± 0.95 µg/mL and the “Concentrations with a safety profile toward HepG2” value (HepG2 cells [4]) was no more than 8.5 µM.
